5 molecules from patent US20070293477A1, “Novel Compounds” (SMITHKLINE BEECHAM CORPORATION, priority 2004, published 2007) can be followed below.

In general, EC50 refers to the concentration at which the effect is half-maximal. Read a high EC50 as lower potency in that assay.

T2 sequence (Q9HBA0 whole entry): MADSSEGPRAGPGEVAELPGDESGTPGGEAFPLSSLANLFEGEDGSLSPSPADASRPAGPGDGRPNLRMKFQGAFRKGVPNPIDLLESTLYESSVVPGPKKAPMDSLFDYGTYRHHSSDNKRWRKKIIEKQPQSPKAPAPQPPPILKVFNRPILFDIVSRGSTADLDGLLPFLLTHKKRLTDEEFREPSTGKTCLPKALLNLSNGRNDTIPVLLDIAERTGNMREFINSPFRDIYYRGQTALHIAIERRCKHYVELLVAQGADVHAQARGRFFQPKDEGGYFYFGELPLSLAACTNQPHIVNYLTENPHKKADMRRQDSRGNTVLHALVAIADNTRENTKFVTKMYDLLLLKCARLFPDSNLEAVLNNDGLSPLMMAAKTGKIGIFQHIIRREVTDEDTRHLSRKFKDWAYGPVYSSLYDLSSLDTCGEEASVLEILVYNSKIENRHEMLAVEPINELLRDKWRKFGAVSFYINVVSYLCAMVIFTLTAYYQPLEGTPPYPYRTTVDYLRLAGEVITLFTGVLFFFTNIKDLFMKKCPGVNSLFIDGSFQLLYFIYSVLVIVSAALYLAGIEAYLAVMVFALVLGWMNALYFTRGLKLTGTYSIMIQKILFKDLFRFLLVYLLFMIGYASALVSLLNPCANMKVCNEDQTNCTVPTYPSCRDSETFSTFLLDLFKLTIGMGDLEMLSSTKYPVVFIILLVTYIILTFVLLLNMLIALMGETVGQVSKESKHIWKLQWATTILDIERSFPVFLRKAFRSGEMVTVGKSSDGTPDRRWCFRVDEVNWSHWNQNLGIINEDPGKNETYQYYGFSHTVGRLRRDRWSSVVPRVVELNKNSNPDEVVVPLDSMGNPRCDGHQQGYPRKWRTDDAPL

In one test the target is T1, TRPV4 channel receptors (Bos taurus, UniProt A0A8F4X677).
T1 construct: obtained using this method in bovine articular chondrocytes; endogenous in cells; host or cells: bovine articular chondrocytes
T1 sequence (A0A8F4X677 1-871): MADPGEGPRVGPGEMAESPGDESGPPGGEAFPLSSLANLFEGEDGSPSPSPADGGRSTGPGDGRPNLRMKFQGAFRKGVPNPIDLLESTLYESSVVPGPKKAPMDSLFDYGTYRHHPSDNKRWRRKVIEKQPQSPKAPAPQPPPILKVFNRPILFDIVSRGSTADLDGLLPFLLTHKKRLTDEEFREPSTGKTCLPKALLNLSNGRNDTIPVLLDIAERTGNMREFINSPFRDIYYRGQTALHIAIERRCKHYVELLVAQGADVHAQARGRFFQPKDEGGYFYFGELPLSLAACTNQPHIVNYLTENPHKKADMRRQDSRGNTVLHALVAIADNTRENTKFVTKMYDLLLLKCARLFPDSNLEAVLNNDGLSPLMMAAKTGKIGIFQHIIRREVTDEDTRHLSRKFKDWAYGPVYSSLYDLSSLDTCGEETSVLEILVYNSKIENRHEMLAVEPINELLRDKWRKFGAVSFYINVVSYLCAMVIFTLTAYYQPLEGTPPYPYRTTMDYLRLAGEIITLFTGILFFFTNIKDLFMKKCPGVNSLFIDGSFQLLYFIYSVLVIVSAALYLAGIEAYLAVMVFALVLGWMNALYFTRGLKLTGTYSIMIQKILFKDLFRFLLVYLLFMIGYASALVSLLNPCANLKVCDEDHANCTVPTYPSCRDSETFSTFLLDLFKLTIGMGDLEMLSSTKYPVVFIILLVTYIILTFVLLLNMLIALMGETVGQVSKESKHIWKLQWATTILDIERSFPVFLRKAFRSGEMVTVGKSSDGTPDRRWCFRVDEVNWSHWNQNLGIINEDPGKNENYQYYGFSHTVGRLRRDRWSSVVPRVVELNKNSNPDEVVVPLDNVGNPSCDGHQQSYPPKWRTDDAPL
The test can be described thus: Ca2+ influx, Fura-2 fluorescence on FlexStation in bovine articular chondrocytes. The class given is cell-based. The settings on record: Fura-2, FlexStation. An excerpt: Ca^2+ influx mediated through TRPV4 channel receptors can be measured using articular chondrocytes from such species as, but not limited to, human, rat, canine, rabbit, monkey, and bovine, using standard techniques in the art such as, but not limited to, Fura-2 (Invitrogen/Molecular Probes, Eugene, Oreg.) fluorescence using a FlexStation (manufactured by Molecular Devices, Sunnyvale, Calif.). Table 1 lists biological data for several representative compounds obtained using this method in bovine articular chondrocytes.
(§1) All exemplary compounds of the present invention were assessed using at least one of the biological assays presented above. Compounds presented in the Examples had EC50 values of about 0.01 μM to about 30 μM as measured by Flex Station using bovine articular chondrocytes and pEC50 values between about 4.5 to about 7.0 as measured by FLIPR assay using TRPV4 expressing HEK cells.
The molecule `CC(C)C[C@H](NC(=O)c1cc2ccccc2s1)C(=O)N[C@@H]1CCCN(S(=O)(=O)c2ccccc2C#N)CC1` [Example 5, N-{(1S)-1-[({(4R)-1-[(2-cyanophenyl)sulfonyl]hexahydro-1H-azepin-4-yl}amino)carbonyl]-3-methylbutyl}-1-benzothiophene-2-carboxamide] returned an EC50 of 0.14 to 1 µM.

As to `CC(C)C[C@H](NC(=O)c1cc2ccccc2s1)C(=O)N[C@@H]1CCCN(S(=O)(=O)c2ccc(C#N)cc2)CC1` [Example 8, N-{(1S)-1-[({(4R)-1-[(4-Cyanophenyl)sulfonyl]hexahydro-1H-azepin-4-yl}amino)carbonyl]-3-methylbutyl}-1-benzothiophene-2-carboxamide], the EC50 fell in the range of 10 to 30 µM. In the case of `CC(C)C[C@H](NC(=O)c1cc2ccccc2n1C)C(=O)N(C)C1CCCN(S(=O)(=O)c2ccccc2C#N)CC1` (stereo partly drawn) [Example 11, N-((1S)-1-{[{1-[(2-Cyanophenyl)sulfonyl]hexahydro-1H-azepin-4-yl}(methyl)amino]carbonyl}-3-methylbutyl)-1-methyl-1H-indole-2-carboxamide], the EC50 lay in the range of 1.01 to 10 µM.

Another test concerns the target T2, TRPV4 channel receptor (Homo sapiens, UniProt Q9HBA0).
T2 construct: expressed in transfected cells; host or cells: HEK cells
Nature of the test: FLIPR assay using TRPV4 expressing HEK cells. The format is cell-based. As to conditions: FLIPR method; pEC50 = −log10(EC50 μM).
Source text: Other techniques used to measure TRPV4 channel receptor activation in chondrocytes include, but are not limited to: FLIPR assay, measuring a compound's capability to reduce the amount of ADAMTSs produced and/or released in response to a catabolic stimulus by a cell comprising a TRPV4 channel receptor; measuring a compound's capability to reduce the amount of MMPs produced and/or released in response to a catabolic stimulus by a cell comprising a TRPV4 channel receptor; measuring a compound's capability to effect the amount of nitric oxide (NO) produced in response to a catabolic stimulus by a cell comprising a TRPV4 channel receptor; and measuring a compound's capability to attenuate the inhibition of matrix synthesis in response to a catabolic stimulus by a cell comprising a TRPV4 channel receptor.
as §1
Consider `CC(C)C[C@H](NC(=O)c1cc2ccccc2n1C)C(=O)NC1CCCN(S(=O)(=O)c2ccc(Cl)cc2)CC1` (mixture of isomers) [Example 3, 1-Methyl-1H-indole-2-carboxylic acid {(S)-1-[1-(4-chloro-benzenesulfonyl)-azepan-4-ylcarbamoyl]-3-methyl-butyl}-amide], for which the EC50 was 10 to 31.6 µM. Still for that read-out and setting: in the case of `CC(C)C[C@H](NC(=O)c1cc2ccccc2s1)C(=O)N[C@@H]1CCCN(S(=O)(=O)c2ccc(Cl)cc2Cl)CC1` [Example 6, N-{(1S)-1-[({(4R)-1-[(2,4-Dichlorophenyl)sulfonyl]hexahydro-1H-azepin-4-yl}amino)carbonyl]-3-methylbutyl}-1-benzothiophene-2-carboxamide] it was 0.1 to 0.794 µM.

The molecule `CC(C)C[C@H](NC(=O)c1cc2ccccc2n1C)C(=O)N(C)C1CCCN(S(=O)(=O)c2ccccc2C#N)CC1` (stereo partly drawn) [Example 11, N-((1S)-1-{[{1-[(2-Cyanophenyl)sulfonyl]hexahydro-1H-azepin-4-yl}(methyl)amino]carbonyl}-3-methylbutyl)-1-methyl-1H-indole-2-carboxamide] had an EC50 of 1 to 7.94 µM.
